Test systems include 786-0 renal; CAKI-1 renal; CCRF-CEM leukemia; HCT-15 colon; HOP-62 NSCLC; HOP-92 NSCLC; MOLT-4 leukemia; OVCAR-5 ovarian; RPMI-8226 leukemia; UACC-257 melanoma; UACC-62 melanoma; SR leukemia.
Holding throughout (assay): NCI anticancer screen, dose series, 48 h

Each structure is given as a SMILES string.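 Exposure lasted 48 hours, with cells grown in 96-well plates and compounds tested at five concentrations. TGI: concentration producing complete growth inhibition.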 Bounds are passed on as bounds.

As for `NNc1nc2ccccc2c(=O)n1NC(=O)C(=O)Nc1cccc(C(F)(F)F)c1`, the TGI with 786-0 renal, in the test with CAKI-1 renal, in the test with CCRF-CEM leukemia, with HCT-15 colon, in the test with HOP-62 NSCLC and in the test with HOP-92 NSCLC was more than 100 µM each time. Further, the TGI in the test with MOLT-4 leukemia, in the test with OVCAR-5 ovarian, in the test with RPMI-8226 leukemia, in the test on UACC-257 melanoma and in the test with UACC-62 melanoma was more than 100 µM throughout.
For the molecule `COc1ccc(O[C@H](COCc2ccccc2)C[C@@H]2COC(C)(C)O2)cc1`, the TGI with 786-0 renal, in the test with CAKI-1 renal, in the test with CCRF-CEM leukemia, in the test with HCT-15 colon, with HOP-62 NSCLC and in the test on MOLT-4 leukemia was more than 100 µM each time. Also, the TGI in the test with OVCAR-5 ovarian, in the test on RPMI-8226 leukemia, in the test on SR leukemia, with UACC-257 melanoma and with UACC-62 melanoma was more than 100 µM each time.
In the case of `CN1C(=S)C(c2ccccc2)Sc2ccccc21` (stereo unspecified), the TGI with 786-0 renal, in the test with CAKI-1 renal, with CCRF-CEM leukemia, in the test on HCT-15 colon, with HOP-62 NSCLC and in the test with MOLT-4 leukemia was more than 100 µM each time. Also, the TGI in the test on OVCAR-5 ovarian, in the test with RPMI-8226 leukemia, in the test on SR leukemia, with UACC-257 melanoma and with UACC-62 melanoma was more than 100 µM throughout.
Consider `O=[N+]([O-])/C(C(Cl)=C(Cl)Cl)=C1\NCCO1`, for which the TGI in the test on 786-0 renal was more than 100 µM; in the test on CAKI-1 renal, more than 100 µM; in the test with CCRF-CEM leukemia, 66.7 µM; in the test on HCT-15 colon, more than 100 µM; in the test on HOP-62 NSCLC it was more than 100 µM; with MOLT-4 leukemia it was more than 100 µM. Besides, the TGI in the test on OVCAR-5 ovarian, with RPMI-8226 leukemia, in the test on SR leukemia, in the test on UACC-257 melanoma and in the test with UACC-62 melanoma was more than 100 µM each time.
Regarding `CN(CN1C(=O)C2Cc3ccccc3CN2C1=O)c1ccccn1` (stereo unspecified), the TGI in the test on 786-0 renal, with CAKI-1 renal, in the test with CCRF-CEM leukemia, with HCT-15 colon, in the test with HOP-62 NSCLC and with MOLT-4 leukemia was more than 100 µM each time. For the same molecule, the TGI in the test with OVCAR-5 ovarian, with RPMI-8226 leukemia, in the test with SR leukemia and with UACC-62 melanoma was more than 100 µM throughout.
Take `Cn1c(C(C#N)c2nc(Cl)ncc2Br)nc2ccccc21` (stereo unspecified): the TGI in the test on 786-0 renal, in the test with CAKI-1 renal, with HCT-15 colon, in the test on HOP-62 NSCLC, in the test with HOP-92 NSCLC and in the test with MOLT-4 leukemia was more than 100 µM in each case. Also, the TGI in the test on OVCAR-5 ovarian, in the test with RPMI-8226 leukemia and in the test with UACC-257 melanoma was more than 100 µM in each case.
Take `CCC1C(c2cccc(OC)c2O)c2cc3c(cc2OC1N1CCCC1)OCO3` (stereo unspecified): the TGI amounted to 41.2 µM in the test on 786-0 renal; 46.7 µM in the test with CCRF-CEM leukemia; 40.3 µM in the test with HCT-15 colon; 46.3 µM with HOP-62 NSCLC; 45 µM with MOLT-4 leukemia; 76.9 µM with OVCAR-5 ovarian. In addition, the TGI is 34 µM with RPMI-8226 leukemia, 50.4 µM in the test on SR leukemia, 71.3 µM in the test on UACC-257 melanoma and 65.9 µM with UACC-62 melanoma.
For the molecule `COc1ccc2cc1Oc1ccc(cc1)C(Sc1ccccc1)CCOC(=O)CC2` (stereo unspecified), the TGI with 786-0 renal, in the test on CAKI-1 renal, with CCRF-CEM leukemia, with HCT-15 colon, with HOP-62 NSCLC and in the test on MOLT-4 leukemia was more than 100 µM each time. For the same molecule, the TGI in the test on OVCAR-5 ovarian, in the test with RPMI-8226 leukemia, with SR leukemia, in the test on UACC-257 melanoma and in the test with UACC-62 melanoma was more than 100 µM throughout.
Consider `N#Cc1c(SCc2ccccc2)nc(-c2ccccc2)[nH]c1=S`, for which the TGI is 48 µM in the test with 786-0 renal; 79 µM in the test with CAKI-1 renal; more than 100 µM in the test on CCRF-CEM leukemia; 50.4 µM in the test on HCT-15 colon; 40.7 µM with HOP-62 NSCLC; 85.7 µM with HOP-92 NSCLC. Further, the TGI was 85.2 µM in the test on MOLT-4 leukemia; 53.6 µM with OVCAR-5 ovarian; 89.9 µM with RPMI-8226 leukemia; more than 100 µM with UACC-257 melanoma; 56.6 µM with UACC-62 melanoma.
As for `COc1ccccc1-c1cc(=O)c2ccccc2[nH]1`, the TGI in the test on 786-0 renal, in the test with CCRF-CEM leukemia, in the test on HCT-15 colon, in the test on HOP-62 NSCLC, in the test with MOLT-4 leukemia and with RPMI-8226 leukemia was more than 100 µM each time. For the same molecule, the TGI in the test on SR leukemia, in the test with UACC-257 melanoma and with UACC-62 melanoma was more than 100 µM each time.
Consider `Cc1ccc(OCC2OC(n3cnc4c(N(C)C)nc(Br)nc43)CC2Oc2ccc(C)cc2)cc1` (stereo unspecified), for which the TGI in the test with 786-0 renal, in the test on CAKI-1 renal, in the test with CCRF-CEM leukemia, with HCT-15 colon, in the test with HOP-92 NSCLC and with OVCAR-5 ovarian was more than 100 µM each time. Also, the TGI with RPMI-8226 leukemia, in the test with UACC-257 melanoma and in the test on UACC-62 melanoma was more than 100 µM throughout.
As to `Cc1ccsc1/C=N/Nc1cc(C)c2cccc(C)c2n1`, the TGI with 786-0 renal, with CAKI-1 renal, with HOP-62 NSCLC, in the test on HOP-92 NSCLC, with OVCAR-5 ovarian and in the test on UACC-257 melanoma was more than 100 µM each time. Also, the TGI in the test with UACC-62 melanoma is more than 100 µM.
Take `O=c1/c(=C\c2ccccc2)sc2n1C(c1ccccc1)C1(O)CCCCC1N=2` (stereo unspecified): the TGI in the test on 786-0 renal, in the test on CAKI-1 renal, in the test on CCRF-CEM leukemia, in the test on HCT-15 colon, with HOP-62 NSCLC and with MOLT-4 leukemia was more than 100 µM throughout. The TGI in the test on OVCAR-5 ovarian, with RPMI-8226 leukemia, in the test with SR leukemia, with UACC-257 melanoma and in the test with UACC-62 melanoma was more than 100 µM each time.

Values taken from PubChem BioAssay (NCI).
